Assay results taken from PubChem BioAssay AID1963854 (Molecular Pharmacology Branch, DTP, NCI, 2024).
Values joined by “and” are separate entries in the source; they are usually repeats but may differ in a detail not shown here. Equal entries are not always repeated.

Tested on: 186277-243-T-J2-PDC complex spheroid viability
Assay: Anticancer human tumor 186277-243-T-J2-PDC patient-derived colon adenocarcinoma cell line growth inhibition [POLQ]
Conditions: for viability, T/C: stronger effect = lower value
Description: Multicellular complex tumor spheroid response to Polymerase (POL) inhibitors (novobiocin, ART-558, RP6685) in combination with a variety of drugs and investigational agents in selected tumor cell lines
The POL inhibitors (novobiocin, ART-558, and RP6685) were evaluated both individually and in combination with standard of care and investigational anticancer small molecules within a complex spheroid model of solid tumors. . Complex spheroids include a stromal component modeled by human endothelial cells (HUVEC) and fibroblasts modeled by human mesenchymal stem cells (MSCs). The concentration ranges selected for each drug and investigational agent were based upon clinically achievable concentrations if the clinical Cmax of the agent was known.
Compounds. The drugs and investigational agents: novobiocin (NSC847541), ART-558 (NSC835418), RP-6685 (NSC848927), peposertib (NSC802822), ceralasertib (NSC780249), elimusertib (NSC800525), camonsertib (NSC841442), AZD-1390 (NSC803789), olaparib (NSC753686), talazoparib (NSC767125), rucaparib (NSC756644), sotorasib (NSC818433), MRTX-1133 (NSC836407), SN-38 (NSC673596), topotecan (NSC609699), epotoside (NSC141540), doxorubicin (NSC123127), gemcitabine (NSC613327), 5-fluorouracil (NSC19893), paclitaxel (NSC125973), vemurafenib (NSC761431), MSA-2 (NSC828583), SN-011 (NSC837082), adavosertib (NSC754352), prexasertib (NSC758257), carboplatin (NSC241240) and oxaliplatin (NSC266046), were obtained from the National Cancer Institute (NCI) Developmental Therapeutics Program Chemical Repository (21). The FDA-approved anticancer drug set is available from the Developmental Therapeutics Program at https://dtp.cancer.gov/organization/dscb/obtaining/. […] The stock solutions were prepared in dimethyl sulfoxide (DMSO, Sigma-Aldrich, St. Louis, MO, cat. D2650), except for the platinum compounds which were prepared in saline (Quality Biological, Gaithersburg, MD, cat. 114-055-101), at 800-fold the tested concentration and stored at -70 degrees C prior to their use. All drugs and investigational agents were tested over a range starting from a high concentration at or near the clinical Cmax and decreasing in half-log increments. If the clinical Cmax for an agent had not been determined, the highest concentration tested was 10 microM, except for SN-38, which was tested at a high concentration of 1 microM.
Cell Culture. All cells were maintained in an incubator at 37 degrees C and 5% CO2 with 95% humidity. The PDC lines were cultured according to standard operating procedures established by the NCI PDMR (https://pdmr.cancer.gov). Table 3 of the manuscript, lists the cell lines along with the number of the three cell types plated to form the mct-spheroids and media for tumor cell growth. After thawing, all PDC lines, except 997537-175-T-J1-PDC and 415267-285-R-J2-PDC, were cultured in Matrigel-coated flasks prepared with a working solution of 1X Ham's F-12 nutrient mix, without supplementation (Thermo Fisher Scientific, cat. 11765054), 100 U/mL penicillin-streptomycin (Thermo Fisher Scientific, cat. 15140122), and 2.5% Matrigel (Corning Inc., Corning, NY, cat. 354248) for the first three passages. The two PDC lines 997537-175-T-J1-PDC and 415267-285-R-J2-PDC were cultured on uncoated flasks. The 857933-349-R-J2-PDC line was cultured in 6C/Colon 1B media containing advanced DMEM/F-12 (Thermo Fisher Scientific, cat. 12634028), 10 mM HEPES (Thermo Fisher Scientific, cat. 15630080), 1X GlutaMAX supplement (Thermo Fisher Scientific, cat. 35050061), 0.1 mg/mL primocin (InvivoGen, San Diego, CA, cat. ant-pm-2), 10% defined fetal bovine serum, heat inactivated (HyClone Laboratories Inc., Logan, UT, cat. SH30070.03HI), 50% L-WRN conditioned media (ATCC, cat. CRL-3276), 1.25 mM N-Acetyl-L-cysteine (Sigma-Aldrich, cat. A9165), 10 mM nicotinamide (Sigma-Aldrich, cat. N0636), 1X B-27 supplement (Thermo Fisher Scientific, cat. 17504044), 1X N-2 supplement (Thermo Fisher Scientific, cat. […]
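Further: spheroids exposed to compounds for seven days.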
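Wherever viability, T/C is given: 100% = DMSO vehicle control viability.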

## COc1cc(C2c3cc4c(cc3C(OC3OC5COC(C)OC5C(O)C3O)C3COC(=O)C23)OCO4)cc(OC)c1O (centres undefined)
Compound 0.0316 µM
  viability, T/C: 99.9% and 94.4% and 99.1%
Compound 0.1 µM
  viability, T/C: 111% and 100% and 118%
Compound 0.316 µM
  viability, T/C: 82.8% and 130% and 71.7%
Compound 1 µM
  viability, T/C: 48.1% and 89.2% and 45.2%
Compound 3.16 µM
  viability, T/C: 30.1% and 59.8% and 27.6%
Compound 10 µM
  viability, T/C: 14.3% and 30.9% and 11.9%
Curve of compound
  IC50: 0.989 µM and 4.47 µM and 0.81 µM

## C=CC(=O)N1CCN(c2nc(=O)n(-c3c(C)ccnc3C(C)C)c3nc(-c4c(O)cccc4F)c(F)cc23)C(C)C1 (centres undefined)
Compound 0.0316 µM
  viability, T/C: 99.7% and 104% and 101%
Compound 0.1 µM
  viability, T/C: 93.3% and 94.9% and 105%
Compound 0.316 µM
  viability, T/C: 97.6% and 89.5% and 103%
Compound 1 µM
  viability, T/C: 96.6% and 85.6% and 99%
Compound 3.16 µM
  viability, T/C: 101% and 104% and 109%
Compound 10 µM
  viability, T/C: 103% and 95% and 93.3%
Curve of compound
  IC50: > 10 µM

## O=C(Nc1ccc(O)c(NS(=O)(=O)c2ccc(F)cc2)c1)c1ccc(-c2ccccc2)cc1
Compound 0.0316 µM
  viability, T/C: 108% and 109% and 99.2%
Compound 0.1 µM
  viability, T/C: 95.9% and 81.3% and 96.8%
Compound 0.316 µM
  viability, T/C: 103% and 90% and 102%
Compound 1 µM
  viability, T/C: 93.1% and 95.4% and 95.7%
Compound 3.16 µM
  viability, T/C: 114% and 98.8% and 102%
Compound 10 µM
  viability, T/C: 98% and 116% and 94.2%
Curve of compound
  IC50: > 10 µM

## CC(C)n1c(=O)n(C)c2cnc3cc(F)c(-c4ccc(OCCCN5CCCCC5)nc4)cc3c21 + Nc1ccc(C#CCN(C(=O)Cc2ncc(C(F)(F)F)cc2C(F)(F)F)c2ccc(F)cc2)nn1
Curve of first compound, second compound 0.0316 µM
  IC50: > 10 µM
Curve of first compound, second compound 0.1 µM
  IC50: > 10 µM
Curve of first compound, second compound 0.316 µM
  IC50: > 10 µM
Curve of first compound, second compound 1 µM
  IC50: > 10 µM
Curve of first compound, second compound 3.16 µM
  IC50: > 10 µM
Curve of first compound, second compound 10 µM
  IC50: > 10 µM
Second compound 0.0316 µM, first compound 0.0316 µM
  viability, T/C: 92.8%
Second compound 0.0316 µM, first compound 0.1 µM
  viability, T/C: 94%
Second compound 0.0316 µM, first compound 0.316 µM
  viability, T/C: 98.2%
Second compound 0.0316 µM, first compound 1 µM
  viability, T/C: 95.6%
Second compound 0.0316 µM, first compound 3.16 µM
  viability, T/C: 105%
Second compound 0.0316 µM, first compound 10 µM
  viability, T/C: 108%
Second compound 0.1 µM, first compound 0.0316 µM
  viability, T/C: 95.3%
Second compound 0.1 µM, first compound 0.1 µM
  viability, T/C: 112%
Second compound 0.1 µM, first compound 0.316 µM
  viability, T/C: 104%
Second compound 0.1 µM, first compound 1 µM
  viability, T/C: 102%
Second compound 0.1 µM, first compound 3.16 µM
  viability, T/C: 98.2%
Second compound 0.1 µM, first compound 10 µM
  viability, T/C: 105%
Second compound 0.316 µM, first compound 0.0316 µM
  viability, T/C: 92.7%
Second compound 0.316 µM, first compound 0.1 µM
  viability, T/C: 90.4%
Second compound 0.316 µM, first compound 0.316 µM
  viability, T/C: 127%
Second compound 0.316 µM, first compound 1 µM
  viability, T/C: 102%
Second compound 0.316 µM, first compound 3.16 µM
  viability, T/C: 114%
Second compound 0.316 µM, first compound 10 µM
  viability, T/C: 109%
Second compound 1 µM, first compound 0.0316 µM
  viability, T/C: 98.8%
Second compound 1 µM, first compound 0.1 µM
  viability, T/C: 112%
Second compound 1 µM, first compound 0.316 µM
  viability, T/C: 114%
Second compound 1 µM, first compound 1 µM
  viability, T/C: 99.1%
Second compound 1 µM, first compound 3.16 µM
  viability, T/C: 113%
Second compound 1 µM, first compound 10 µM
  viability, T/C: 113%
Second compound 3.16 µM, first compound 0.0316 µM
  viability, T/C: 91.7%
Second compound 3.16 µM, first compound 0.1 µM
  viability, T/C: 98.3%
Second compound 3.16 µM, first compound 0.316 µM
  viability, T/C: 109%
Second compound 3.16 µM, first compound 1 µM
  viability, T/C: 102%
Second compound 3.16 µM, first compound 3.16 µM
  viability, T/C: 119%
Second compound 3.16 µM, first compound 10 µM
  viability, T/C: 105%
Second compound 10 µM, first compound 0.0316 µM
  viability, T/C: 85.7%
Second compound 10 µM, first compound 0.1 µM
  viability, T/C: 95.4%
Second compound 10 µM, first compound 0.316 µM
  viability, T/C: 98.7%
Second compound 10 µM, first compound 1 µM
  viability, T/C: 91.8%
Second compound 10 µM, first compound 3.16 µM
  viability, T/C: 105%
Second compound 10 µM, first compound 10 µM
  viability, T/C: 102%

## COC1C(OC(N)=O)C(O)C(Oc2ccc3c(O)c(NC(=O)c4ccc(O)c(CC=C(C)C)c4)c(=O)oc3c2C)OC1(C)C (centres undefined)
Compound 0.0316 µM
  viability, T/C: 99.1% [middle of 13 runs]
Compound 0.1 µM
  viability, T/C: 97.7% [middle of 13 runs]
Compound 0.316 µM
  viability, T/C: 97.7% [middle of 13 runs]
Compound 3.16 µM
  viability, T/C: 103% [middle of 13 runs]
Compound 10 µM
  viability, T/C: 92.6% [middle of 13 runs]
Compound alone, run of 10/31/2023
  IC50: > 10 µM
